Values joined by “and” are separate entries in the source; they are usually repeats but may differ in a detail not shown here. Identical values can stand only once.
Assay: wn = mass fraction of the nth substance listed
Details: 101 kPa, Liquid, Alternating current cell with electrodes, w1 = 0.01

CCCCCCCCCCCC[N+](CC)(CC)CCCCCCCCCCCC.[Br-] [didodecyldiethylammonium bromide] + O
Details | electrical conductivity
279.25 K | 0.00329 S/m
279.35 K | 0.00328 S/m
279.45 K | 0.00328 S/m
279.55 K | 0.00328 S/m
279.65 K | 0.00329 S/m
279.75 K | 0.00331 S/m and 0.00332 S/m
279.85 K | 0.00335 S/m
279.95 K | 0.00338 S/m and 0.00343 S/m
280.15 K | 0.00345 S/m
280.25 K | 0.00348 S/m
280.35 K | 0.00355 S/m
280.45 K | 0.00357 S/m
280.55 K | 0.00359 S/m
280.65 K | 0.0036 S/m
280.75 K | 0.00364 S/m
280.85 K | 0.0037 S/m and 0.00371 S/m
280.95 K | 0.00378 S/m
281.05 K | 0.00381 S/m
281.15 K | 0.00381 S/m
281.25 K | 0.00371 S/m
281.35 K | 0.00377 S/m
281.45 K | 0.00374 S/m
281.55 K | 0.00378 S/m
281.65 K | 0.00378 S/m
281.85 K | 0.00378 S/m
281.95 K | 0.00374 S/m
282.05 K | 0.00366 S/m
282.25 K | 0.00373 S/m
282.45 K | 0.00366 S/m
282.65 K | 0.00365 S/m
282.75 K | 0.00364 S/m
282.85 K | 0.00356 S/m
283.05 K | 0.00356 S/m
283.15 K | 0.0036 S/m
283.35 K | 0.0034 S/m
283.45 K | 0.0036 S/m
283.55 K | 0.00354 S/m
283.75 K | 0.0035 S/m
283.85 K | 0.00351 S/m
283.95 K | 0.00346 S/m
284.05 K | 0.0035 S/m
284.25 K | 0.00354 S/m
284.35 K | 0.00354 S/m
284.55 K | 0.0034 S/m
284.65 K | 0.00355 S/m
284.75 K | 0.0035 S/m
284.85 K | 0.00345 S/m
284.95 K | 0.00352 S/m
285.05 K | 0.00342 S/m
285.15 K | 0.00344 S/m
285.25 K | 0.0035 S/m
285.35 K | 0.00344 S/m
285.45 K | 0.00344 S/m
285.55 K | 0.00342 S/m
285.65 K | 0.00343 S/m
285.75 K | 0.0034 S/m
285.85 K | 0.00342 S/m
285.95 K | 0.00343 S/m
286.05 K | 0.00348 S/m
286.15 K | 0.0034 S/m
286.25 K | 0.00342 S/m
286.35 K | 0.00341 S/m
286.45 K | 0.00343 S/m
286.55 K | 0.00339 S/m
286.65 K | 0.0034 S/m
286.75 K | 0.00347 S/m
286.95 K | 0.00347 S/m
287.05 K | 0.00347 S/m
287.15 K | 0.00344 S/m
287.25 K | 0.00341 S/m
287.35 K | 0.00345 S/m
287.45 K | 0.00347 S/m
287.55 K | 0.00345 S/m
287.65 K | 0.00341 S/m
287.75 K | 0.00342 S/m
287.85 K | 0.00343 S/m
287.95 K | 0.00348 S/m
288.05 K | 0.00344 S/m
288.15 K | 0.00345 S/m
288.25 K | 0.00342 S/m
288.45 K | 0.0035 S/m
288.55 K | 0.00357 S/m
288.65 K | 0.00345 S/m
288.75 K | 0.0035 S/m
288.85 K | 0.00345 S/m
288.95 K | 0.00346 S/m
289.05 K | 0.00344 S/m
289.15 K | 0.00349 S/m
289.25 K | 0.00346 S/m
289.35 K | 0.00352 S/m
289.45 K | 0.00346 S/m
289.55 K | 0.00347 S/m
289.65 K | 0.00352 S/m
289.75 K | 0.00352 S/m
289.85 K | 0.00352 S/m
289.95 K | 0.00351 S/m
290.05 K | 0.00357 S/m
290.15 K | 0.00348 S/m
290.25 K | 0.0035 S/m
290.35 K | 0.00347 S/m
290.55 K | 0.00355 S/m
290.65 K | 0.00364 S/m
290.75 K | 0.00356 S/m
290.85 K | 0.00359 S/m
290.95 K | 0.0036 S/m
291.05 K | 0.00358 S/m
291.15 K | 0.00361 S/m
291.25 K | 0.00357 S/m
291.35 K | 0.00362 S/m
291.45 K | 0.0036 S/m
291.55 K | 0.00366 S/m
291.65 K | 0.00359 S/m
291.75 K | 0.0036 S/m

— the NIST ThermoML archive (doi:10.1021/acs.jced.5b00367)
